Assay results published in patent US8889345B2, “Detection methods of NADP(H) using mBFP” (priority 2012, dated 2014).

How the values were obtained:
[1] = target: Alcohol dehydrogenase; assay: Inhibitor IC50 against NADPH dependent oxidoreductase, by his-mBFP fluorescence quantification of NADPH; type: biochemical; conditions: compounds added at 0.1 to 10 mM, sigma plot
Experimental: (§1) As an example of typical reactions, first, 0.02 units of glutathione reductase was reacted with 50 mM potassium phosphate buffer (pH 7.5) containing 5 mM of oxidized glutathione (GSSG) and 2 mM NADPH at room temperature, and then fluorescence was measured. In addition, 0.03 units of isocitrate dehydrogenase was reacted with 50 mM phosphate buffer (pH 7.2) containing 5 mM isocitrate, 2 mM MgCl2, and 2 mM NADP+ at room temperature, and then fluorescence was measured. In addition, 0.02 units of glucose-6-phosphate dehydrogenase was reacted with 50 mM Tris-HCL buffer (pH 7.5) containing 5 mM glucose-6-phosphate, 50 mM MgCl2, and 2 mM NADP+ at room temperature, and then fluorescence was measured. Further, 0.04 units of malate dehydrogenase was reacted with 50 mM Tris-HCL buffer (pH 7.5) containing 5 mM L-malate, 50 mM MgCl2, and 2 mM NADP+ at room temperature, and then fluorescence was measured. In addition, 0.02 units of NADPH oxidase was reacted with 50 mM phosphate buffered saline (PBS) containing 50 mM MgCl2 and 2 mM NADP+ at room temperature, and then fluorescence was measured. At the time of measuring the fluorescence, the reaction solution was diluted in consideration of mole ratio with his-mBFP.
(§2) In addition, the present invention may selectively select an activity inhibitor by restricting the library in the above-mentioned process with a clone having an oxidation/reduction enzyme family, adding a specific compound as well as a substrate in a process of measuring the activities of these enzymes, calculating a changed amount of NADP(H) to compare the calculated value with that of a control group (only substrate was add). These processes mean that after clones having related enzyme activities are cultured and a substrate and NADP(H) are added thereto, a changed amount of NADPH is quantified while inducing a reaction in an environment in which various synthetic materials are present.
(§3) In more detail, compounds having a possibility as the activity inhibitor were added to reaction solution of NADPH dependent oxidoreductase as in Example 7 at each concentration (0.1 to 10 mM). While the reaction was carried out, a produced amount of NADPH according to addition of each compound was quantified, and an inhibition degree of specific enzyme activity was confirmed by comparing the produced amount of NADPH in the case of adding the compound (test group) with that of in the case of not adding (control group).
(§4) After rates of NADPH production (reduction) reaction according to the concentration changes of primary selected compounds were measured, IC50 of each compound was calculated using a sigma plot program.

[2] = target: T1, Glucose-6-phosphate dehydrogenase (UniProt P11412); assay: as above; type: biochemical; conditions: compounds added at 0.1 to 10 mM, sigma plot
T1 sequence (P11412 1-505): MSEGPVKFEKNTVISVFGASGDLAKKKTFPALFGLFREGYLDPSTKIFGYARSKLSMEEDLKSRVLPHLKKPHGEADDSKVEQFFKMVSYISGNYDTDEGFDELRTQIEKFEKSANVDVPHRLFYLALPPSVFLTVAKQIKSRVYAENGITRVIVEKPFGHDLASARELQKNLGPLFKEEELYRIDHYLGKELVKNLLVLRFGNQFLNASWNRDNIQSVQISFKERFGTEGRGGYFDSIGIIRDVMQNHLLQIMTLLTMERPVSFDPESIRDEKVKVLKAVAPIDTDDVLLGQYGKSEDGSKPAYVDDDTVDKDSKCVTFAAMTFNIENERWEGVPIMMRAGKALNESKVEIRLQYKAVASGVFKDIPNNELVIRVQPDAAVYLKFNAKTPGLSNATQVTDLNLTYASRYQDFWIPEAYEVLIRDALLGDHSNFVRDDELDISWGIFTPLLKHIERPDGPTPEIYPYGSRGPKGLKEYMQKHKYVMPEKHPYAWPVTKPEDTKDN
Experimental: as §1, §2, §3, §4

[3] = target: Isocitrate dehydrogenase; assay: as above; type: biochemical; conditions: compounds added at 0.1 to 10 mM, sigma plot
Experimental: as §1, §2, §3, §4

[4] = Retention of fluorescence of his-mBFP according to storage method; type: physicochemical
Experimental: In order to search a long-term storage method for his-mBFP requiring retention of the structure that is an important factor in fluorescence activity, suitable protein storage methods were observed. As storage conditions, degrees of reduction of fluorescence according to time were confirmed at different temperatures (4° C., −20° C., −80° C.) and different concentrations of additives for storage (5% trehalose, 25% glycerol, 50% glycerol, based on final concentration).
Among his-mBFP samples stored under each of the conditions, in the case of frozen samples, the sample was sufficiently hydrated in a cool buffer for 5 to 45 minutes in consideration of reconstruction of the structure, time required for restoration, or the like, and then was used in the experiment.

Cc1cn[nH]c1 [Formepizole]
IC50 [1]: 40.6 ± 5.8 µM

OC[C@H]1O[C@@H](Oc2cc(O)cc(/C=C/c3ccc(O[C@@H]4O[C@H](CO)[C@@H](O)[C@H](O)[C@H]4O)cc3O)c2)[C@H](O)[C@@H](O)[C@@H]1O [Mulberroside A]
IC50 [1]: 48.9 ± 4.9 µM

COc1ccc(/C=C/c2cc(O)cc(O[C@@H]3O[C@H](CO)[C@@H](O)[C@H](O)[C@H]3O)c2)cc1O [Rhaponticin]
IC50 [1]: 61.2 ± 4.1 µM

O=C(O[C@@H]1Cc2c(O)cc(O)cc2O[C@@H]1c1ccc(O)c(O)c1)c1cc(O)c(O)c(O)c1 [epicatechin gallate]
IC50 [2]: 235 ± 37.8 µM

O=C(O[C@@H]1Cc2c(O)cc(O)cc2O[C@H]1c1cc(O)c(O)c(O)c1)c1cc(O)c(O)c(O)c1 [gallocatechin gallate]
IC50 [2]: 225 ± 28.6 µM

CC(O)(C(=O)O)C(CC(=O)O)C(=O)O (stereo not drawn) [methylisocitric acid]
IC50 [3]: 102 ± 7.4 µM

O=C(O)C(=O)C(C(=O)O)C(O)C(=O)O (stereo not drawn) [oxalomalic acid]
IC50 [3]: 63.3 ± 5.2 µM

B1: his-mBFP: metagenome-derived blue fluorescent protein with histidine tag, amino acid sequence SEQ ID NO: 3 (protein)
chain: MRGSHHHHHHGSACQNLNGKVAFVTGGSRGIGAAIVRRLAADGADIAFTYVSASSKNVATALVQELEAKGRRARAIQADSADPAQVRQAVEQAIVQLGPVDVLVNNAGIFLAGPLGEVTLDDYERTMNINVRAPFVAIQAAQASMPDGGRIINIGSCLAERAGRAGVTLYAASKSALLGMTRGLARDLGARGITANVVHPGPIDTDMNPADGERSGELVAVLSLPHYGEVRDIAGMVAFLAGPDGRYVTGASLAVDGGFAA
modifications: synthetic construct of His-tagged metagenome-derived blue fluorescent protein (mBFP)
fluorescence maintained ([4]; after 6 months, additive (25% to 50%) added): ≥ 90%
fluorescence maintained ([4]; both cool and frozen conditions after 6 months): ≥ 80%
fluorescence maintained ([4]; cold room at 4° C. for 2 months, solution state, no additive for storage): ≥ 80%
fluorescence maintained ([4]; freezer at −20 to −80° C. for 2 months with an additive for storage): ≥ 95%
fluorescence intensity maintained ([4]; glycerol final concentration 50%, freezer at −80° C.): ≥ 90%
